Measured values from patent US20070172957A1, “Methods of identifying anti-inflammatory macrolides” (TAISHO PHARMACEUTICAL CO., LTD., priority 2004, published 2007).

System: genes predictive for the anti-inflammatory macrolide effect
Experiment: Genes statistically predictive of Clari response: differentially expressed with Clari but not the inactive macrolides MAA or Josa (Appendix E)
Type: cell-based
Description: In the case of the above-mentioned (i) related to arachidonic acid biosynthesis, specifically, methods of the embodiment involve assaying whether a test macrolide alters biosynthesis of arachidonic acid, alters the expression or activities of enzymes involved in the biosynthesis or activation of arachidonic acid (e.g., arachidonic acid CoA synthetase, delta-6 desaturase, fatty acid elongase, and delta-5 desaturase, AA-related genes in Tables 2 and 3), or alters the expression of genes identified as predictive for the anti-inflammatory macrolide effect (Appendix E). Assays in which arachidonic acid or gene expression or enzymatic activity is detected can be carried out after contacting a cell with a test macrolide. Any cell line that secretes prostaglandin or produces arachidonic acid can be used. Epithelial and macrophages lines (e.g., A549 or THP-1) are suitable for this purpose; other cell lines can be identified by carrying out assays such as those described in the specific Examples, below. Alternatively, screening assays can be carried out after adding a test macrolide to an in vitro cell system (e.g., a cellular extract or liver microsome preparation) or an in vitro enzyme assay system.

CC[C@H]1OC(=O)[C@H](C)[C@@H](O[C@H]2C[C@@](C)(OC)[C@@H](O)[C@H](C)O2)[C@H](C)[C@@H](O[C@@H]2O[C@H](C)C[C@H](N(C)C)[C@H]2O)[C@](C)(OC)C[C@@H](C)C(=O)[C@H](C)[C@@H](O)[C@]1(C)O [clarithromycin]
group mean, gene SERPING1 (SpotID 46579, MAA and Josa vs. Clari): 0.86
group mean, gene C12orf8 (SpotID 46586, MAA and Josa vs. Clari): 1.22
mean group, FLJ20699 (SpotID 46633, pooled group mean): 0.81
mean group, ARHGAP1 (SpotID 46648, pooled group mean): 0.96
group mean, gene KIAA1172 (SpotID 46679, MAA and Josa vs. Clari): 0.91
mean group, KIAA1172 (SpotID 46679, pooled group mean): 0.92
group mean, gene MKNK2 (SpotID 46825, MAA and Josa vs. Clari): 1.15
mean group, MKNK2 (SpotID 46825, pooled group mean): 1.12
group mean, gene PRKAR1A (SpotID 46838, MAA and Josa vs. Clari): 0.92
group mean, gene ARHGDIA (SpotID 46843, MAA and Josa vs. Clari): 0.91
mean group, ARHGDIA (SpotID 46843, pooled group mean): 0.93
group mean, gene HEXA (SpotID 46882, MAA and Josa vs. Clari): 1.14
group mean, gene CDIPT (SpotID 46896, MAA and Josa vs. Clari): 1.04
mean group, CDIPT (SpotID 46896, pooled group mean): 1.01
mean group, PACE (SpotID 46923, pooled group mean): 1.09
group mean, gene METAP2 (SpotID 46935, MAA and Josa vs. Clari): 0.88
mean group, METAP2 (SpotID 46935, pooled group mean): 0.89
group mean, gene HSPBP1 (SpotID 46979, MAA and Josa vs. Clari): 0.87
mean group, EREG (SpotID 46988, pooled group mean): 0.85
group mean, gene TFPI2 (SpotID 46991, MAA and Josa vs. Clari): 0.57
group mean, gene C2orf3 (SpotID 47034, MAA and Josa vs. Clari): 0.87
mean group, C2orf3 (SpotID 47034, pooled group mean): 0.90
group mean, gene NFRKB (SpotID 47056, MAA and Josa vs. Clari): 0.82
group mean, gene GOLGB1 (SpotID 47111, MAA and Josa vs. Clari): 1.17
group mean, gene MCM2 (SpotID 47123, MAA and Josa vs. Clari): 0.78
group mean, gene KIAA0251 (SpotID 47131, MAA and Josa vs. Clari): 1.07
group mean, gene ARHGAP1 (SpotID 47192, MAA and Josa vs. Clari): 0.94
group mean, gene ITGB5 (SpotID 47212, MAA and Josa vs. Clari): 1.12
mean group, NUBP1 (SpotID 47241, pooled group mean): 0.95
group mean, gene AKR1A1 (SpotID 47249, MAA and Josa vs. Clari): 1.08
group mean, gene HKE4 (SpotID 47251, MAA and Josa vs. Clari): 1.13
mean group, EPOR (SpotID 47314, pooled group mean): 1.14
group mean, gene ADAM11 (SpotID 47352, MAA and Josa vs. Clari): 1.18
mean group, ADAM11 (SpotID 47352, pooled group mean): 1.10
group mean, gene ERF (SpotID 47354, MAA and Josa vs. Clari): 1.00
mean group, P4HB (SpotID 47366, pooled group mean): 1.18
group mean, gene MTHFD1 (SpotID 47406, MAA and Josa vs. Clari): 0.93
mean group, CETN2 (SpotID 47415, pooled group mean): 1.18
group mean, gene SNK (SpotID 47418, MAA and Josa vs. Clari): 0.77
mean group, SNK (SpotID 47418, pooled group mean): 0.82
mean group, GCS1 (SpotID 47432, pooled group mean): 1.02
group mean, gene DCTN1 (SpotID 47439, MAA and Josa vs. Clari): 0.93
mean group, DCTN1 (SpotID 47439, pooled group mean): 0.95
group mean, gene RANBP1 (SpotID 47446, MAA and Josa vs. Clari): 0.83
mean group, RANBP1 (SpotID 47446, pooled group mean): 0.89
mean group, MSH3 (SpotID 47504, pooled group mean): 0.99
mean group, SERPINA1 (SpotID 47522, pooled group mean): 0.95
group mean, gene PTK2B (SpotID 47524, MAA and Josa vs. Clari): 1.08
group mean, gene ARHGDIA (SpotID 47535, MAA and Josa vs. Clari): 0.91
group mean, gene TRAP1 (SpotID 47622, MAA and Josa vs. Clari): 0.89
mean group, TRAP1 (SpotID 47622, pooled group mean): 0.94
group mean, gene HSPA9B (SpotID 47661, MAA and Josa vs. Clari): 0.90
mean group, NR4A2 (SpotID 47679, pooled group mean): 1.14
group mean, gene HSPA9B (SpotID 47694, MAA and Josa vs. Clari): 0.90
mean group, HSPA9B (SpotID 47694, pooled group mean): 0.95
group mean, gene MAD4 (SpotID 47705, MAA and Josa vs. Clari): 1.42
group mean, gene NBS1 (SpotID 47754, MAA and Josa vs. Clari): 0.89
mean group, NBS1 (SpotID 47754, pooled group mean): 0.97
group mean, gene KIAA1922 (SpotID 47755, MAA and Josa vs. Clari): 0.79
group mean, gene POLA (SpotID 47776, MAA and Josa vs. Clari): 0.86
mean group, POLA (SpotID 47776, pooled group mean): 0.89
group mean, gene BET3 (SpotID 47793, MAA and Josa vs. Clari): 1.08
group mean, gene GOT1 (SpotID 47802, MAA and Josa vs. Clari): 0.93
mean group, GOT1 (SpotID 47802, pooled group mean): 0.94
group mean, gene ENTPD6 (SpotID 47811, MAA and Josa vs. Clari): 1.11
mean group, ENTPD6 (SpotID 47811, pooled group mean): 1.06
mean group, SSI-1 (SpotID 47846, pooled group mean): 0.93
group mean, gene PRLR (SpotID 47850, MAA and Josa vs. Clari): 0.99
mean group, PRLR (SpotID 47850, pooled group mean): 0.99
group mean, gene ERF (SpotID 47898, MAA and Josa vs. Clari): 1.01
group mean, gene YWHAE (SpotID 47911, MAA and Josa vs. Clari): 0.95
group mean, gene CCNE2 (SpotID 47926, MAA and Josa vs. Clari): 0.73
group mean, gene P4HA1 (SpotID 47935, MAA and Josa vs. Clari): 1.27
mean group, P4HA1 (SpotID 47935, pooled group mean): 1.18
group mean, gene CTSB (SpotID 47937, MAA and Josa vs. Clari): 1.15
group mean, gene INPP5E (SpotID 47939, MAA and Josa vs. Clari): 0.89
group mean, gene SF3B3 (SpotID 47947, MAA and Josa vs. Clari): 0.93
